{"source": "patent US7368287B2", "about": "“Use of L-α-lysophosphatidylcholine to obtain the differentiation of monocytes into mature dendritic cells in vitro” (Biomerieux, priority 2002, dated 2008)", "key": {"[1]": {"system": "naïve allogenic T lymphocytes", "assay": "Stimulation of IL-2 and γIFN secretion by allogenic T lymphocytes (mixed leukocyte reaction, ELISA)", "type": "cell-based, human", "parameters": "unit not given here", "settings": "for Secretion of IL-2 by T lymphocytes / Secretion of γIFN by T lymphocytes: after 4 days; for Secretion of γIFN by T lymphocytes: Table 3; for Dendritic cell-induced secretion of γIFN by T lymphocytes: Table 8", "experimental": "The “control” and “LPC” cells used in this analysis are those obtained after 6 days of differentiation according to the protocol described in example 1.\nNaïve allogenic T lymphocytes are isolated from human peripheral blood. Peripheral blood mononuclear cells are isolated by density gradient centrifugation (600 g, 20 minutes) in the presence of Ficoll-Hypaque. After elimination of the monocytes on a Percoll gradient, the peripheral blood lymphocytes are found in the dense fraction. The T lymphocytes are purified by immunomagnetic depletion using a cocktail of anti-CD19 (antibody 4G7) (Becton Dickinson, Francklin Lakes, N.J., USA), anti-CD16 (antibody 3G8), anti-CD56 (antibody NKH1), anti-glycophorin A (antibody 11E4B7.6) and anti-CD14 (antibody RMPO52), monoclonal antibodies sold by Beckman Coulter.\nThe purified T lymphocytes are cultured in flat-bottomed 96-well culture plates with the “control” or “LPC” cells.\n2×10^5T cells are cultured in 200 μl of culture medium according to a monocytes differentiated in the presence or absence of LPC/T cells ratio (DC/LT ratio) of 1:5, 1:10 or 1:20. After 4 days, 50 μl of the culture supernatant are used to determine the secretion of IL-2 (interleukin 2) and of γIFN (gamma interferon) using an ELISA kit (Endogen, Woburn, Mass., USA).\nThe inventors then used a PPARγ agonist, ciglitizone. A solution of ciglitizone (Sigma, 50 μM) was added to the culture medium on the fifth day of monocyte differentiation, as described in example 1, 15 minutes before the addition of a solution of LPC (40 μM, for […]). The cells obtained are “LPC+ciglitizone” cells. “Ciglitizone” cells were obtained according to the same protocol, but in the absence of LPC, and “LPC” cells were obtained as described in example 1, in the absence of ciglitizone.\nThe functional ability of these cells (“control”, “ciglitazone” and “LPC+ciglitazone” cells) to stimulate T lymphocytes (LT) were then analyzed. These cells were cultured as described in example 4, in the presence of purified allogenic T lymphocytes. The secretion of γIFN was measured as in example 4."}, "[2]": {"system": "PAF receptor", "assay": "CD86 expression in presence of PAF or of the PAF antagonist BN52021", "type": "cell-based, human", "experimental": "The phenotype of the “control” and “LPC” cells is analyzed by flow cytometry on a FACSCalibur (Becton Dickinson, Francklin Lakes, N.J., USA) using FITC (fluorosceine isothiocyanate)-conjugated anti-CD14, anti-HLA-DR and anti-CD80 and PE (phycoerythrin)-conjugated anti-CD1a, anti-CD83, anti-CD86 and anti-CD40 (Beckman Coulter). According to the state of the art, monocytes preferentially have a CD14+ CD1a− phenotype, immature dendritic cells preferentially have a CD14− CD1a+CD86− phenotype, and mature dendritic cells preferentially have a CD14− CD1a intermediate—CD86+ phenotype.\nThus, a solution of PAF (Sigma, 5 μM) was added to the culture medium on the 5th day of monocyte differentiation. The expression of CD86 by the “control” cells and by the “LPC” cells, obtained in the presence or in the absence of PAF, was analyzed according to the protocol described in example 2, and the results are given in table 9.\nThus, a solution of the PAF antagonist BN52021 (Biomol, Plymouth Meeting, USA, 100 μM) was added to the culture medium on the 5th day of monocyte differentiation. The expression of CD86 by the “control” and “LPC” cells, obtained in the presence or in the absence of BN52021, was analyzed according to the protocol described in example 2, and the results are given in table 10."}, "[3]": {"system": "BALB/c mice", "assay": "HEL-specific IgG in serum by ELISA after immunization", "type": "in vivo, mouse", "settings": "LPC 350 nmol co-injected with HEL, booster after 15 days; FIG. 1", "experimental": "LPC stimulates the production of specific antibodies against a co-injected soluble antigen. LPC dissolved in PBS (350 nmol in 50 μl) is mixed with hen egg lysozyme (HEL, 1 mg/ml) and this mixture is injected into the plantar foot pad of BALB/c mice. The “HEL+LPC” batch of mice receives 50 μl of this mixture in the foot pads of the two hind feet. The “HEL” batch of mice receives 50 μl of HEL solution (1 mg/ml in PBS) in the two feet. After 15 days, a booster injection is given subcutaneously on the 2 flanks. The “HEL+LPC” batch receives, on each flank, 100 μl of a solution of LPC (5 mM) and of HEL (1 mg/ml) in PBS. The “HEL” batch receives, on each flank, 100 μl of a solution of HEL (1 mg/ml) in PBS. Two weeks later, blood is taken from the mice and the IgGs specific for the HEL antigen are assayed by ELISA with respect to a standard IgG solution range. The titration curves giving the absorbance (Abs) as a function of the logarithm of the serum dilution are represented in FIG. 1."}, "[4]": {"system": "BALB/c mice", "assay": "Delayed contact hypersensitivity to the hapten DNFB (ear edema)", "type": "in vivo, mouse", "settings": "500 nmol LPC on back 10 minutes before DNFB sensitization, 48 h after elicitation", "description": "LPC can induce a CD8+ T lymphocyte response in vivo. In this example, a test for delayed contact hypersensitivity to haptens was used. In this model, BALB/c mice are sensitized by application of a hapten, DNFB (1-fluoro-2,4-dinitrobenzene, 0.5% solution in 1:1 olive oil/acetone), to the back. Five days later, a non-irritant dose of DNFB (0.2% solution in 1:1 olive oil/acetone) is applied to the left ear, whereas the right ear receives the solvent. In this elicitation phase, CD8^+ T lymphocytes specific for the haptenized proteins are recruited and infiltrate the ear, secreting γIFN and producing an edema.\nA “control” batch of mice was sensitized with DNFB alone and another batch (“LPC” mice) received 500 nmol of LPC by application to the skin of the back of 20 μl of an ethanolic solution of LPC, 10 minutes before the application of DNFB. Five days later, the two batches were treated in the same way for the elicitation phase and the thickening of the ears was measured using a micrometer 48 h after this application."}, "[5]": {"system": "NF-κB", "settings": "high concentration of LPC (50 μM); cited from earlier work"}}}
{"substance": "L-α-lysophosphatidylcholine [LPC]", "values": [{"measurement": "Secretion of IL-2 by T lymphocytes", "setting": "[1]; DC/LT ratio 0", "result": 0}, {"measurement": "Secretion of IL-2 by T lymphocytes", "setting": "[1]; DC/LT ratio 0.05", "result": "23 ± 1"}, {"measurement": "Secretion of IL-2 by T lymphocytes", "setting": "[1]; DC/LT ratio 0.1", "result": "47 ± 26"}, {"measurement": "Secretion of IL-2 by T lymphocytes", "setting": "[1]; DC/LT ratio 0.2", "result": "173 ± 31"}, {"measurement": "Secretion of γIFN by T lymphocytes", "setting": "[1]; DC/LT ratio 0", "result": 0}, {"measurement": "Secretion of γIFN by T lymphocytes", "setting": "[1]; DC/LT ratio 0.05", "result": "73 ± 47"}, {"measurement": "Secretion of γIFN by T lymphocytes", "setting": "[1]; DC/LT ratio 0.1", "result": "439 ± 108"}, {"measurement": "Secretion of γIFN by T lymphocytes", "setting": "[1]; DC/LT ratio 0.2", "result": "795 ± 19"}, {"measurement": "Dendritic cell-induced secretion of γIFN by T lymphocytes", "setting": "[1]; DC/LT ratio 0", "result": 0}, {"measurement": "Dendritic cell-induced secretion of γIFN by T lymphocytes", "setting": "[1]; DC/LT ratio 0.05", "result": "750 ± 184"}, {"measurement": "Dendritic cell-induced secretion of γIFN by T lymphocytes", "setting": "[1]; DC/LT ratio 0.1", "result": "899 ± 124"}, {"measurement": "Dendritic cell-induced secretion of γIFN by T lymphocytes", "setting": "[1]; DC/LT ratio 0.2", "result": "1326 ± 248"}, {"measurement": "Expression of CD86", "setting": "[2]; LPC cells = 100%, BN52021 100 μM added on 5th day", "result": 100, "unit": "%"}, {"measurement": "Expression of the CD86 marker (mean fluorescence intensity)", "setting": "[2]; PAF 5 μM and/or LPC added on 5th day", "result": 287.11}, {"measurement": "Increase in the expression of CD86", "setting": "[2]; versus control cells, PAF 5 μM and/or LPC", "result": 470, "unit": "%"}, {"measurement": "Production of IgGs specific for the HEL antigen", "setting": "[3]", "result": "induces the synthesis of antibodies specific for the antigen"}, {"measurement": "Thickening of the left ear", "setting": "[4]; left ear receives DNFB 0.2%", "result": "149 ± 31", "unit": "μm"}, {"measurement": "Thickening of the right ear", "setting": "[4]; right ear receives solvent", "result": "0 ± 3", "unit": "μm"}, {"measurement": "Activity of the transcription factor NF-κB", "setting": "[5]", "result": "inhibits"}]}
